Ki data for 1 compound are collected here from PMC11591752, “Novel Inhibitory Actions of Neuroactive Steroid [3α,5α]-3-Hydroxypregnan-20-One on Toll-like Receptor 4-Dependent Neuroimmune Signaling” (Biomolecules, 2024).

Molecules are shown by their SMILES.

The target of the experiment is T1, MD-2 (Homo sapiens, UniProt Q9Y6Y9).
T1 construct: gene LY96; Recombinant human MD-2 (R&D Systems #1787-MD-050/CF), covalently immobilized
T1 sequence (Q9Y6Y9 19-160): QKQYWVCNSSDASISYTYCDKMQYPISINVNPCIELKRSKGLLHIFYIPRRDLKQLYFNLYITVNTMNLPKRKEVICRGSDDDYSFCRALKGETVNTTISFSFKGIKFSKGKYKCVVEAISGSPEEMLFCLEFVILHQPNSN
Nature of the experiment: SPR competition assay: inhibition of Lipid A binding to immobilized hMD-2.

The term Ki denotes the equilibrium dissociation constant of an inhibitor or competing ligand from its target. With `CC(=O)[C@H]1CC[C@H]2[C@@H]3CC[C@H]4C[C@H](O)CC[C@]4(C)[C@H]3CC[C@]12C` [3α,5α-THP, (3α,5α)-3-hydroxypregnan-20-one], the affinity, expressed as Ki, was 4.5 ± 1.7 nM.
